Assay results as given in ChEMBL document CHEMBL4421717, “Antagonists and agonists of bitter taste receptors and uses thereof” (2012).
The source made the active and inactive calls. The calls are words filed in the database; no cut-off is given here.

Key:
Format in all cases: functional, cell-based
[1] = target: T1, Taste receptor type 2 member 43 (Homo sapiens) (UniProt P59537); assay: Agonist activity at recombinant human N-terminal rat ST3 receptor-fused TAS2R43 expressed in HEK293T cells co-expressing Galpha16gust44 assessed as effect on intracellular calcium level at 100 uM by FLIPR assay
T1 sequence (whole entry): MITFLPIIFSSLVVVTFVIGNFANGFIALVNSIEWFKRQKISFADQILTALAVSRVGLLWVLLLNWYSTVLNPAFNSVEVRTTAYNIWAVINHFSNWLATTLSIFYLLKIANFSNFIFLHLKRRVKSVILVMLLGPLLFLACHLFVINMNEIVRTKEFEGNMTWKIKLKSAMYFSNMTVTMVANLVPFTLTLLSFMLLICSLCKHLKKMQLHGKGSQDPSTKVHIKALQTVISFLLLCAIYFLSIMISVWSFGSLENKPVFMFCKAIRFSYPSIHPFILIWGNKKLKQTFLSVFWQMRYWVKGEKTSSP

[2] = target: T2, Taste receptor type 2 member 39 (Homo sapiens) (UniProt P59534); assay: Agonist activity at recombinant human N-terminal rat ST3 receptor-fused TAS2R39 expressed in HEK293T cells co-expressing Galpha16gust44 assessed as effect on intracellular calcium level at 100 uM by FLIPR assay
T2 sequence (whole entry): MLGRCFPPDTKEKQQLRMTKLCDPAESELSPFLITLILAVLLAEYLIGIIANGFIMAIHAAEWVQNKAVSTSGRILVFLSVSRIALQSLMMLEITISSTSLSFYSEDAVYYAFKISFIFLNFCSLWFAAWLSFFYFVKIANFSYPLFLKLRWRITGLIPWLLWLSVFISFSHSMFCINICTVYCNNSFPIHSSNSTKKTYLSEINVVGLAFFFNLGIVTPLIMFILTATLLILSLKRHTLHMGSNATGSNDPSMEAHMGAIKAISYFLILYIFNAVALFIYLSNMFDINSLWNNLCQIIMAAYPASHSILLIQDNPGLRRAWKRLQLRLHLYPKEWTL

[3] = target: Taste receptor type 2 member 5 (Homo sapiens) (UniProt Q9NYW4); assay: Activity at recombinant human N-terminal rat ST3 receptor-fused TAS2R5 expressed in HEK293T cells co-expressing Galpha16gust44 assessed as increase in denatonium saccharide-induced intracellular calcium level at 100 uM by FLIPR assay
[4] = target: T3, Taste receptor type 2 member 1 (Homo sapiens) (UniProt Q9NYW7); assay: Agonist activity at recombinant human N-terminal rat ST3 receptor-fused TAS2R1 expressed in HEK293T cells co-expressing Galpha16gust44 assessed as effect on intracellular calcium level at 100 uM by FLIPR assay
T3 sequence (whole entry): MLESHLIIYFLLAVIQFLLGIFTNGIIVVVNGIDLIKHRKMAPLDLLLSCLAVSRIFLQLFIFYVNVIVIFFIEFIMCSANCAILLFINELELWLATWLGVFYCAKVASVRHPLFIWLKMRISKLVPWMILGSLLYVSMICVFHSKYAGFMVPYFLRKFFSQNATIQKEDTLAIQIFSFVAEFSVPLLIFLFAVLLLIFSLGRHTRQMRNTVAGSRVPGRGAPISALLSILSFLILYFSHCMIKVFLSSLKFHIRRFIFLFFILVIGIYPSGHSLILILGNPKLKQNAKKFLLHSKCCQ

[5] = target: T4, Taste receptor type 2 member 20 (Homo sapiens) (UniProt P59543); assay: Agonist activity at recombinant human N-terminal rat ST3 receptor-fused TAS2R49 expressed in HEK293T cells co-expressing Galpha16gust44 assessed as effect on intracellular calcium level at 100 uM by FLIPR assay
T4 sequence (whole entry): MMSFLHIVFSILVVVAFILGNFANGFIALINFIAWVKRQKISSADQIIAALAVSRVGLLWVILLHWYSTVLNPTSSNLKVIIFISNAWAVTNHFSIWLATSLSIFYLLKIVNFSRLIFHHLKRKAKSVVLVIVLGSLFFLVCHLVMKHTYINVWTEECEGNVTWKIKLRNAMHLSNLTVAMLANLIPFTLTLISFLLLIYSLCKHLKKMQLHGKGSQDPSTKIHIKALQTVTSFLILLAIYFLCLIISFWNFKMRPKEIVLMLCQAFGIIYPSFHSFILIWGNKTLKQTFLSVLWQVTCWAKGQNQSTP

Chain of Taste receptor type 2 member 5 (Homo sapiens) (Q9NYW4 whole entry, the tested form may be a part): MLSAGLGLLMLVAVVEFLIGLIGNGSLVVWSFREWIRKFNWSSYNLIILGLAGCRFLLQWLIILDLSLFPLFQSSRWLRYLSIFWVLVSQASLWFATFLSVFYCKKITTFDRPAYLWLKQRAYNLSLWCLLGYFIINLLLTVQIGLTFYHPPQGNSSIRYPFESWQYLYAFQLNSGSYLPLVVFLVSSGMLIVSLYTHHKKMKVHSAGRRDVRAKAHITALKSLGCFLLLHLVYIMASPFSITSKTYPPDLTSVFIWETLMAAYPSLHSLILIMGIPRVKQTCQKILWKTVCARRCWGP

In the case of C/C1=C\C[C@H](O)/C(C)=C/[C@H]2OC(=O)[C@@H](C)C2CC1 (stereo not given in full), the Activity [1] was “inactive”, the Activity [2] was “inactive” and the Activity [3] was “Active”. For the same molecule, the Activity [4] was “Active” and the Activity [5] was “inactive”.
